Results published in US12582120B2, “Compositions with fatty acids and optional cationic compounds and methods of use” (priority 2021, dated 2026).
Values joined by “and” are separate entries in the source; they are usually repeats but may differ in a detail not shown here. Equal entries are not always repeated.

Assays:
[1] = known antimicrobial agents; cited from earlier work
[2] = test system: Saccharomyces cerevisiae (ATCC 834); assay: Example 1 preliminary screen of antimicrobial efficacy, yeast; format: cell-based; conditions: pH 9, 60 s, 50 °C
Protocol: (§1) Example 1 was a preliminary screen of various compositions for antimicrobial efficacy against acetobacter and lactobacillus and yeast. For this example, the compositions were applied for 1 minute at 50° C. or 60° C. to Acetobacter aceti (ATCC 15973), Lactobacillus brevis (ATCC 14869), or Saccharomyces cerevisiae (ATCC 834).

[3] = test system: Lactobacillus brevis (ATCC 14869); assay: Example 3 suspension test of nonanoic acid alone, Lactobacillus; format: cell-based; conditions: for % reduction / Log Reduction: Nonanoic Acid 200 ppm
Protocol: (§2) Example 3 tested concentrations of nonanoic acid alone for antimicrobial efficacy against acetobacter and lactobacillus. For this example, the compositions were applied for the recorded time and temperature to suspensions of Acetobacter aceti (ATCC 15973), or Lactobacillus brevis (ATCC 14869). After the period of time, a neutralizer was added to quench the reaction. The remaining solution was plated and counted for colonies and compared to the untreated control. The log reduction was recorded in the table below. The information in the column labeled “solution” describes the solution environment that was used for a test. For example, the solution may have included 0.5% or 1% sodium bicarbonate. The solution may have included multi-day old used clean-in-place solution from a plant that included sodium carbonate (labeled “used CIP”). The pH of the solution was adjusted with sodium carbonate.

[4] = test system: Acetobacter aceti (ATCC 15973); assay: Example 1 preliminary screen of antimicrobial efficacy, Acetobacter; format: cell-based; conditions: 60 s, 50 °C
Protocol: as §1

[5] = test system: Acetobacter aceti (ATCC 15973); assay: Example 3 suspension test of nonanoic acid alone, Acetobacter; format: cell-based; conditions: for % reduction / Log Reduction: Nonanoic Acid 200 ppm, pH 9
Protocol: as §2

[6] = test system: Lactobacillus brevis (ATCC 14869); assay: Example 1 preliminary screen of antimicrobial efficacy, Lactobacillus; format: cell-based
From the text: Example 1 was a preliminary screen of various compositions for antimicrobial efficacy against acetobacter and lactobacillus and yeast. […]

[7] = pH 8.5, 60 s, 50 °C, 1% sodium bicarbonate
[8] = pH 8.5, 600 s, 50 °C, 1% sodium bicarbonate
[9] = pH 8.5, 2 days, 20 °C, used CIP
[10] = pH 8.7, 60 s, 45 °C, 0.5% sodium bicarbonate
[11] = pH 8.7, 120 s, 45 °C, 0.5% sodium bicarbonate
[12] = pH 8.7, 300 s, 45 °C, 0.5% sodium bicarbonate
[13] = pH 8.7, 600 s, 45 °C, 0.5% sodium bicarbonate
[14] = pH 9, 60 s, 50 °C, 1% sodium bicarbonate
[15] = pH 10.5, 60 s, 50 °C, 1% sodium bicarbonate
[16] = pH 10.5, 600 s, 50 °C, used CIP
[17] = pH not adjusted, 60 s, 45 °C, 0.5% sodium bicarbonate
[18] = pH not adjusted, 120 s, 45 °C, 0.5% sodium bicarbonate
[19] = pH not adjusted, 300 s, 45 °C, 0.5% sodium bicarbonate
[20] = pH not adjusted, 600 s, 45 °C, 0.5% sodium bicarbonate
[21] = various times, temperatures, pHs, and solution conditions (Table 3)
[22] = 60 s, 50 °C, 1% sodium bicarbonate

Compound: CC(=O)OO [peracetic acid]
- Typical Antimicrobial pH Range [1]: <7

Compound: CCCCCCCC(=O)OO [peroctanoic acid]
- Typical Antimicrobial pH Range [1]: <5

Compound: acidified sodium chlorite
- Typical Antimicrobial pH Range [1]: 2.5-4

Compound: CCCCCCCCC(=O)O [Nonanoic Acid, nonanoic acid]
- % reduction ([2]; Nonanoic Acid 125 ppm): 99.954%
- % reduction [3, 7]: 99.636%
- Log Reduction [3, 7]: 2.44
- % reduction [3, 8]: 100.000%
- Log Reduction [3, 8]: 6.90
- % reduction ([3]; pH 8.5, 600 s, 50 °C, used CIP): 100.000%
- Log Reduction ([3]; pH 8.5, 600 s, 50 °C, used CIP): 7.04
- % reduction [3, 9]: 100.000%
- Log Reduction [3, 9]: 7.20
- % reduction [3, 10]: 99.900%
- Log Reduction [3, 10]: 3.00
- % reduction [3, 11]: 100.000%
- Log Reduction [3, 11]: 7.64
- % reduction [3, 12]: 100.000%
- Log Reduction [3, 12]: 7.64
- % reduction [3, 13]: 100.000%
- Log Reduction [3, 13]: 7.64
- % reduction [3, 14]: 99.736%
- Log Reduction [3, 14]: 2.58
- % reduction ([3]; pH 9, 600 s, 50 °C, used CIP): 100.000%
- Log Reduction ([3]; pH 9, 600 s, 50 °C, used CIP): 7.04
- % reduction ([3]; pH 9, 2 days, 20 °C, used CIP): 100.000%
- Log Reduction ([3]; pH 9, 2 days, 20 °C, used CIP): 7.20
- % reduction [3, 15]: 100.000%
- Log Reduction [3, 15]: 7.04
- % reduction [3, 16]: 100.000%
- Log Reduction [3, 16]: 7.04
- % reduction [3, 17]: 99.905%
- Log Reduction [3, 17]: 3.02
- % reduction [3, 18]: 100.000%
- Log Reduction [3, 18]: 6.34
- % reduction [3, 19]: 100.000%
- Log Reduction [3, 19]: 7.64
- % reduction [3, 20]: 100.000%
- Log Reduction [3, 20]: 7.64
- reducing gram positive bacteria [3, 21]: effective
- % reduction ([4]; Nonanoic Acid 125 ppm, pH 9): 99.998%
- % reduction [5, 22]: 99.993%
- Log Reduction [5, 22]: 4.18
- % reduction ([5]; 2 days, 20 °C, used CIP): 97.846%
- Log Reduction ([5]; 2 days, 20 °C, used CIP): 1.67
- reducing gram negative bacteria [5, 21]: effective
- % reduction ([6]; Nonanoic Acid 125 ppm, pH 4, 60 s, 50 °C): 100.000%
- % reduction ([6]; Nonanoic Acid 125 ppm, pH 9, 60 s, 50 °C): 96.125%

Compound: CCCCCCCC(=O)O [Octanoic Acid, octanoic acid]
- % reduction ([2]; Octanoic Acid 125 ppm): 100.000%
- % reduction ([4]; Octanoic Acid 100 ppm, pH 4): 0.000%
- % reduction ([4]; Octanoic Acid 100 ppm, pH 5): 54.967%
- % reduction ([4]; Octanoic Acid 100 ppm, pH 9): 99.999% and 99.998%
- % reduction ([4]; Octanoic Acid 125 ppm, pH 9): 99.998%
- % reduction ([4]; Octanoic Acid 150 ppm, pH 4): 86.207%
- % reduction ([4]; Octanoic Acid 200 ppm, pH 4): 99.998% and 99.996%
- % reduction ([4]; Octanoic Acid 200 ppm, pH 7): 99.993%
- % reduction ([6]; Octanoic Acid 125 ppm, pH 4, 60 s, 50 °C): 100.000%
- % reduction ([6]; Octanoic Acid 125 ppm, pH 9, 60 s, 50 °C): 97.813%
- % reduction ([6]; Octanoic Acid 150 ppm, pH 4, 50 s, 60 °C): 100.000%
- % reduction ([6]; Octanoic Acid 200 ppm, pH 4, 50 s, 60 °C): 100.000%

Compound: OO [hydrogen peroxide]
- Typical Antimicrobial pH Range [1]: <5

Compound: CCCCCCCCCCCC(=O)N[C@@H](CCCN=C(N)N)C(=O)OCC [Ethyl Lauroyl Arginate, ethyl lauroyl arginate]
- % reduction ([2]; Ethyl Lauroyl Arginate 5 ppm): 99.888%
- % reduction ([4]; Ethyl Lauroyl Arginate 2.5 ppm, pH 9): 99.891%
- % reduction ([4]; Ethyl Lauroyl Arginate 5 ppm, pH 9): 99.981% and 99.922%
- % reduction ([4]; Ethyl Lauroyl Arginate 25 ppm, pH 4): 32.759%
- % reduction ([4]; Ethyl Lauroyl Arginate 25 ppm, pH 9): 99.808%
- % reduction ([4]; Ethyl Lauroyl Arginate 25 ppm, pH 10): 99.241%
- % reduction ([4]; Ethyl Lauroyl Arginate 50 ppm, pH 4): 98.491%
- % reduction ([4]; Ethyl Lauroyl Arginate 50 ppm, pH 10): 99.763%
- % reduction ([4]; Ethyl Lauroyl Arginate 200 ppm, pH 7): 99.999%
- % reduction ([4]; Ethyl Lauroyl Arginate 200 ppm, pH 10): 99.998%
- % reduction ([6]; Ethyl Lauroyl Arginate 5 ppm, pH 4, 60 s, 50 °C): 98.844%
- % reduction ([6]; Ethyl Lauroyl Arginate 5 ppm, pH 9, 60 s, 50 °C): 99.999%
- % reduction ([6]; Ethyl Lauroyl Arginate 25 ppm, pH 4, 50 s, 60 °C): 99.999%
- % reduction ([6]; Ethyl Lauroyl Arginate 25 ppm, pH 10, 50 s, 60 °C): 100.000%
- % reduction ([6]; Ethyl Lauroyl Arginate 50 ppm, pH 4, 50 s, 60 °C): 100.000%
- % reduction ([6]; Ethyl Lauroyl Arginate 50 ppm, pH 10, 50 s, 60 °C): 100.000%
